Laboratory results as given in patent US12156918B2, “Neuroendocrine cancer targeted therapy” (THE UAB RESEARCH FOUNDATION, priority 2018, dated 2024).
Where a SMILES comes first, the peptide text is derived from it. [ ]: non-standard residue; d: D form. The star is where a group is joined. Dolaproine = CO[C@@H]([C@@H]1CCCN1)[C@@H](C)C(=O)O; Dil = CC[C@H](C)[C@H](NC)[C@@H](CC(=O)O)OC; X1 = C[C@@H](N*)[C@@H](O)c1ccccc1; NMeV = CN[C@H](C(=O)O)C(C)C

Legend:
human CD8+ T cells = assay: Flow cytometry of cytokine expression in CD3/CD28 stimulated T cells; assay type: cell-based; details: 2 days incubation (100 nM elsewhere in the source)
Description: Therefore, our novel anti-SSTR2 mAb has great potential as a drug delivery vehicle in the form of ADC. […] Using flow cytometry, we analyze the effect of our SSTR2 mAb on the expression of cytokines in the CD3/CD28 stimulated human CD8+ T cells after incubating with mAb for 2 days.
Moreover, the possible effect of the disclosed anti-SSTR2 mAb on cytokine production in CD8^+ T cells was also tested. Post CD3/CD28 stimulation, human CD8^+ T cells were incubated with either 100 nM of SST analog (Octreotide) or 100 nM of the anti-SSTR2 mAb for 2 days. After incubation, flow cytometry was performed to analyze the expression of IL-2 and IFN-γ.

BON-1 cells = assay: In vitro anti-cancer toxicity (IC50), Luminescent Cell Viability Assay; assay type: cell-based, human; details: 3-day incubation
Description: In vitro anti-cancer toxicity (IC50). BON cell line was utilized to compare the toxicity of ADC. 75 uL of culture media containing cells (viability >95%) with a density of 5×10^4 cells/mL was added in each well of 96-well plate. ADC or MMAE solution was sterilized by 0.2 μm filter and diluted to different concentrations with complete medium. After 4-hr incubation in regular cell culture incubator, 75 μL of ADC or MMAE with gradient concentrations were mixed with cells in the 96-well plate. The well plate was covered by another 96-well plate filled with PBS to prevent medium evaporation during treatment period. After 3-day incubation, the toxicity result was generated through Luminescent Cell Viability Assay (Promega, Madison, […]).

microtubule = assay: Microtubule de-polymerization imaging; assay type: cell-based, human; details: BON cell line

Row | SMILES | increase of IFN-γ expression (human CD8+ T cells) [folds] | increase of IL-2 expression (human CD8+ T cells) [folds] | IC50 (BON-1 cells) [nM] | mechanism of NET cell proliferation inhibition (microtubule)
1 | C[C@@H](O)[C@@H]1NC(=O)[C@H](CCCCN)NC(=O)[C@@H](Cc2c[nH]c3ccccc23)NC(=O)[C@H](Cc2ccccc2)NC(=O)[C@@H](NC(=O)[C@H](N)Cc2ccccc2)CSSC[C@@H](C(=O)N[C@H](CO)[C@@H](C)O)NC1=O [Octreotide] | 2.2 | 1.6 | – | –
2 | CC[C@H](C)[C@@H]([C@@H](CC(=O)N1CCC[C@H]1[C@H](OC)[C@@H](C)C(=O)N[C@H](C)[C@@H](O)c1ccccc1)OC)N(C)C(=O)[C@@H](NC(=O)[C@@H](NC)C(C)C)C(C)C [MMAE, monomethyl auristatin E] (H-[NMeV]V[Dil][Dolaproine]-X1) | – | – | 2 | microtubule de-polymerization
